Columns and labels:
[1] = Half life in CD-1 mouse at 10 mg/kg, po; type: ADME, organism-based; conditions: in vivo
[2] = Tmax in CD-1 mouse at 10 mg/kg, po; type: ADME, organism-based; conditions: in vivo
[3] = Cmax in CD-1 mouse at 10 mg/kg, po; type: ADME, organism-based; set-up: dose 10 mg/kg, route po; conditions: in vivo
[4] = AUClast in CD-1 mouse at 10 mg/kg, po; type: ADME, organism-based; set-up: dose 10 mg/kg, route po; conditions: in vivo
[5] = Observed AUC infinity in CD-1 mouse at 10 mg/kg, po; type: ADME, organism-based; set-up: dose 10 mg/kg, route po; conditions: in vivo
[6] = Observed MRT infinity in CD-1 mouse at 10 mg/kg, po; type: ADME, organism-based; conditions: in vivo
Ty-82 = test: Antiproliferative activity against human Ty-82 cells incubated for 72 hrs by sulforhodamine B based cell counting kit-8 assay; type: functional; conditions: TY82, 72 h
MM1.S = test: Antiproliferative activity against human MM1.S cells incubated for 72 hrs by sulforhodamine B based cell counting kit-8 assay; type: functional
[7] = molecular target: Bromodomain-containing protein 4 (Homo sapiens, UniProt O60885); test: Inhibition of full length BRD4 (unknown origin) transfected in HEK293 cells incubated for 20 hrs measured by NanoBRET BRD4/Histone H3.3 interaction assay kit; type: cell-based
[8] = Metabolic stability in human liver microsomes assessed as half life; type: ADME, Microsome
[9] = Metabolic stability in dog liver microsomes assessed as half life; type: ADME, Canis lupus familiaris, Microsome
[10] = Metabolic stability in mouse liver microsomes assessed as half life; type: ADME, Microsome
[11] = Metabolic stability in human liver microsomes assessed as clearance; type: ADME, Microsome; conditions: read-out: CLH
[12] = Metabolic stability in dog liver microsomes assessed as clearance; type: ADME, Canis lupus familiaris, Microsome; conditions: read-out: CLH
[13] = Metabolic stability in mouse liver microsomes assessed as clearance; type: ADME, Microsome; conditions: read-out: CLH
MV4-11 = test: Antiproliferative activity against human MV4-11 cells; type: functional, cell-based

half-life [1] | Tmax [2] | Cmax [3] | AUC(0-t) [4] | AUC(0-inf) [5] | MRT [6] | IC50 (MM1.S) | IC50 [7] | Compound | IC50 (Ty-82) | further results
0.74 h | 0.58 h | 58.1 ng/mL | 71.5 ng·h/mL | 75.8 ng·h/mL | 1.75 h |  |  | Cc1ccc(-n2nc(C(=O)NCCCNC(=O)c3nc(-c4ccc5c(c4)N(C4CCCC4)[C@H](C)C(=O)N5C)n(-c4ccc(C)cc4)n3)nc2-c2ccc3c(c2)N(C2CCCC2)[C@H](C)C(=O)N3C)cc1 |  | 
 |  |  |  |  |  | > 20000 nM | 1730 nM | Cc1ccc(-n2nc(C(=O)N3CCNCC3)nc2-c2ccc3c(c2)N(C2CCCC2)[C@@H](C)C(=O)N3C)cc1 | > 20000 nM | 
0.82 h | 1 h | 238 ng/mL | 361 ng·h/mL | 372 ng·h/mL | 1.69 h |  | 6.2 nM | Cc1ccc(-n2nc(C(=O)N3CCN(C(=O)c4nc(-c5ccc6c(c5)N(C5CCCC5)[C@H](C)C(=O)N6C)n(-c5ccc(C)cc5)n4)CC3)nc2-c2ccc3c(c2)N(C2CCCC2)[C@H](C)C(=O)N3C)cc1 |  | 
 |  |  |  |  |  | 3.12 nM | 66.6 nM | Cc1ccc(-n2nc(C(=O)N3CCN(C(=O)c4nc(-c5ccc6c(c5)N(C5CCCC5)[C@@H](C)C(=O)N6C)n(-c5ccc(C)cc5)n4)CC3)nc2-c2ccc3c(c2)N(C2CCCC2)[C@H](C)C(=O)N3C)cc1 | 16.7 nM | 
 |  |  |  |  |  |  |  | Cc1ccc(-n2nc(C(=O)N3C[C@H](C)N(C(=O)c4nc(-c5ccc6c(c5)N(C)[C@H](C)C(=O)N6C)n(-c5ccc(C)cc5)n4)C[C@H]3C)nc2-c2ccc3c(c2)N(C)[C@H](C)C(=O)N3C)cc1 |  | half-life [8]: 3.62 h; half-life [9]: 3.02 h; half-life [10]: 1.84 h; microsomal CLint [11]: 6.4 µL/min/mg; microsomal CLint [12]: 7.6 µL/min/mg; microsomal CLint [13]: 12.6 µL/min/mg
 |  |  |  |  |  | 1.77 nM |  | Cc1ccc(-n2nc(C(=O)N3C[C@H](C)N(C(=O)c4nc(-c5ccc6c(c5)N(Cc5ccccc5)[C@H](C)C(=O)N6C)n(-c5ccc(C)cc5)n4)C[C@H]3C)nc2-c2ccc3c(c2)N(Cc2ccccc2)[C@H](C)C(=O)N3C)cc1 | 1.12 nM | 
 |  |  |  |  |  | 0.51 nM |  | C[C@@H]1C(=O)N(C)c2ccc(-c3nc(C(=O)N4CCN(C(=O)c5nc(-c6ccc7c(c6)N(C6CCCC6)[C@H](C)C(=O)N7C)n(-c6ccc7ccccc7c6)n5)CC4)nn3-c3ccc4ccccc4c3)cc2N1C1CCCC1 | 0.6 nM | 
 |  |  |  |  |  |  |  | Cc1sc2c(c1C)C(c1ccc(Cl)cc1)=N[C@@H](CC(=O)NCCOCCOCCOCCOCCOCCOCCOCCNC(=O)C[C@@H]1N=C(c3ccc(Cl)cc3)c3c(sc(C)c3C)-n3c(C)nnc31)c1nnc(C)n1-2 |  | IC50 (MV4-11): 0.17 nM
 |  |  |  |  |  | 47.4 nM | 52.2 nM | Cc1ccc(-n2nc(C(=O)N3CCNCC3)nc2-c2ccc3c(c2)N(C2CCCC2)[C@H](C)C(=O)N3C)cc1 | 24.1 nM | 
0.1 h | 2.67 h | 33.7 ng/mL | 205 ng·h/mL | 278 ng·h/mL | 11.2 h |  |  | Cc1ccc(-n2nc(C(=O)N[C@@H]3CCCC[C@H]3NC(=O)c3nc(-c4ccc5c(c4)N(C4CCCC4)[C@H](C)C(=O)N5C)n(-c4ccc(C)cc4)n3)nc2-c2ccc3c(c2)N(C2CCCC2)[C@H](C)C(=O)N3C)cc1 |  | 
